Assay results: patent publication US20230146675A1, “PYRIMIDO[5,4-d]PYRIMIDINE DERIVATIVES AS ENT INHIBITORS FOR THE TREATMENT OF CANCERS, AND COMBINATION THEREOF WITH ADENOSINE RECEPTOR ANTAGONISTS” (ITEOS BELGIUM SA, priority 2020, published 2023)

Target: T1, human ENT1 (Homo sapiens, UniProt Q99808)
T1 sequence (Q99808 1-456): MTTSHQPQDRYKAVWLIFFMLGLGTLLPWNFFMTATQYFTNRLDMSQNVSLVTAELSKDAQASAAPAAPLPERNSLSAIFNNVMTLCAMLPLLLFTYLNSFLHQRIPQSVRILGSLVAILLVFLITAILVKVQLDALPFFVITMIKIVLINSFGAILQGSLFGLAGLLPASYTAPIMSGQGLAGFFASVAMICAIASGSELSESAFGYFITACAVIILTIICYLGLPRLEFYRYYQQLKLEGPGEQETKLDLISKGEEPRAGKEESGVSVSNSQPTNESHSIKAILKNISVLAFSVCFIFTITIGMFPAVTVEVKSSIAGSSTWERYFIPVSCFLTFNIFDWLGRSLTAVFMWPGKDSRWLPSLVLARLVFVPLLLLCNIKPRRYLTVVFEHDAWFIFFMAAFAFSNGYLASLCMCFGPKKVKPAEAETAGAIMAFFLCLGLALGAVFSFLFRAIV
Assay: ENT1 binding assay (competition with Sahenta-DY647 on JAR cells)
Design: JAR cells expressing ENT1 were bought from ATCC; host or cells: JAR cells
Conditions: binned IC50
Summary of the method: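 JAR cells were incubated with test compounds and the fluorescent ligand Sahenta-DY647 in competition. Plates were washed twice by centrifugation (4 min, 400 rcf, 4 °C). Binding potency was derived from the final fluorescence.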

| IC50 [µM] | Compound |
| --- | --- |
| < 0.1 | COCCN(CCOC)c1nc(N2CCC(OC)CC2)c2nc(N(CCOC)CCOC)nc(N(C)Cc3ccc(OC)c(OC)c3)c2n1 [Compound 169, N4-(3,4-dimethoxybenzyl)-N2,N2,N6,N6-tetrakis(2-methoxyethyl)-8-(4-methoxypiperidin-1-yl)-N4-methylpyrimido[5,4-d]pyrimidine-2,4,6-triamine] |
| 0.5 to 1 | COCCN(CCOC)c1nc(N2CCC3(CC2)NC(=O)NC3=O)c2nc(N(CCOC)CCOC)nc(N3CCC(OC)CC3)c2n1 [Compound 117, 8-(2,6-bis(bis(2-methoxyethyl)amino)-8-(4-methoxypiperidin-1-yl)pyrimido[5,4-d]pyrimidin-4-yl)-1,3,8-triazaspiro[4.5]decane-2,4-dione] |
| 0.5 to 1 | COCCN(CCOC)c1nc(N2CCC(OC)CC2)c2nc(N(CCOC)CCOC)nc(NCc3ccncc3)c2n1 [Compound 61, N2,N2,N6,N6-tetrakis(2-methoxyethyl)-8-(4-methoxypiperidin-1-yl)-N4-(pyridin-4-ylmethyl)pyrimido[5,4-d]pyrimidine-2,4,6-triamine] |
| 0.1 to 0.5 | COCCN(Cc1ccc(C(=O)O)c(OC)c1)c1nc(N2CCN(C)C(=O)C2)c2nc(N(CCOC)CCOC)nc(N3CCC(OC)CC3)c2n1 [Compound 337, 4-(((6-(bis(2-methoxyethyl)amino)-8-(4-methoxypiperidin-1-yl)-4-(4-methyl-3-oxopiperazin-1-yl)pyrimido[5,4-d]pyrimidin-2-yl)(2-methoxyethyl)amino)methyl)-2-methoxybenzoic acid] |
| 0.5 to 1 | COCCN(CCOC)c1nc(N2CCC(OC)CC2)c2nc(N(CCOC)CCOC)nc(NCCCn3ccnc3)c2n1 [Compound 176, N4-(3-(1H-imidazol-1-yl)propyl)-N2,N2,N6,N6-tetrakis(2-methoxyethyl)-8-(4-methoxypiperidin-1-yl)pyrimido[5,4-d]pyrimidine-2,4,6-triamine] |
| 0.5 to 1 | COCCN(CCOC)c1nc(N2CCN(C)C(=O)C2)c2nc(N(CCOC)CCOC)nc(N(C)C)c2n1 [Compound 320, 4-(2,6-bis(bis(2-methoxyethyl)amino)-8-(dimethylamino)pyrimido[5,4-d]pyrimidin-4-yl)-1-methylpiperazin-2-one] |
| 0.1 to 0.5 | COCCN(CCOC)c1nc(N2CCN(C)C(=O)C2)c2nc(N(CCOC)CCOC)nc(N3CCCCC3)c2n1 [Compound 319, 4-(2,6-bis(bis(2-methoxyethyl)amino)-8-(piperidin-1-yl)pyrimido[5,4-d]pyrimidin-4-yl)-1-methylpiperazin-2-one] |
| 0.1 to 0.5 | CCOC(=O)C1CCN(c2nc(N(CCOC)CCOC)nc3c(N4CCC(C(=O)OCC)CC4)nc(N(CCOC)CCOC)nc23)CC1 [Compound 3, diethyl 1,1′-(2,6-bis(bis(2-methoxyethyl)amino)pyrimido[5,4-d]pyrimidine-4,8-diyl)bis(piperidine-4-carboxylate)] |
| 0.5 to 1 | COCCN(CCOC)c1nc(N2CC(O)(C(F)(F)F)C2)c2nc(N(CCO)CCO)nc(N3CCC(OC)CC3)c2n1 [Compound 326, 2,2′-((6-(bis(2-methoxyethyl)amino)-8-(3-hydroxy-3-(trifluoromethyl)azetidin-1-yl)-4-(4-methoxypiperidin-1-yl)pyrimido[5,4-d]pyrimidin-2-yl)azanediyl)bis(ethan-1-ol)] |
| < 0.1 | COCCN(CCOC)c1nc(N2CCC(OC)CC2)c2nc(N(CCOC)CCOC)nc(NCc3ccc(F)c(Cl)c3)c2n1 [Compound 138, N4-(3-chloro-4-fluorobenzyl)-N2,N2,N6,N6-tetrakis(2-methoxyethyl)-8-(4-methoxypiperidin-1-yl)pyrimido[5,4-d]pyrimidine-2,4,6-triamine] |
| < 0.1 | COCCN(CCOC)c1nc(N2CCN(C)C(=O)C2)c2nc(N(CCOC)CCOC)nc(N(C)Cc3cccc(F)c3)c2n1 [Compound 233, 4-(2,6-bis(bis(2-methoxyethyl)amino)-8-((3-fluorobenzyl)(methyl)amino)pyrimido[5,4-d]pyrimidin-4-yl)-1-methylpiperazin-2-one] |
